The source made the active and inactive calls.
What was measured:
Assay type in all cases: functional
[1] = molecular target: Lysine-specific demethylase 4C (Homo sapiens, UniProt Q9H3R0); assay: GASC-1 (JMJD2C) histone demethylase inhibitors, dose response, biochemical, DELFIA europium, cherry-picked samples (AID 488835)
Hexokinase-1 = molecular target: T1, Hexokinase-1 (Homo sapiens, UniProt P19367); assay: hexokinase 1 activators, dose response, selectivity assay for HKDC1 activator project, biochemical (AID 504762)
T1 sequence (P19367 whole entry): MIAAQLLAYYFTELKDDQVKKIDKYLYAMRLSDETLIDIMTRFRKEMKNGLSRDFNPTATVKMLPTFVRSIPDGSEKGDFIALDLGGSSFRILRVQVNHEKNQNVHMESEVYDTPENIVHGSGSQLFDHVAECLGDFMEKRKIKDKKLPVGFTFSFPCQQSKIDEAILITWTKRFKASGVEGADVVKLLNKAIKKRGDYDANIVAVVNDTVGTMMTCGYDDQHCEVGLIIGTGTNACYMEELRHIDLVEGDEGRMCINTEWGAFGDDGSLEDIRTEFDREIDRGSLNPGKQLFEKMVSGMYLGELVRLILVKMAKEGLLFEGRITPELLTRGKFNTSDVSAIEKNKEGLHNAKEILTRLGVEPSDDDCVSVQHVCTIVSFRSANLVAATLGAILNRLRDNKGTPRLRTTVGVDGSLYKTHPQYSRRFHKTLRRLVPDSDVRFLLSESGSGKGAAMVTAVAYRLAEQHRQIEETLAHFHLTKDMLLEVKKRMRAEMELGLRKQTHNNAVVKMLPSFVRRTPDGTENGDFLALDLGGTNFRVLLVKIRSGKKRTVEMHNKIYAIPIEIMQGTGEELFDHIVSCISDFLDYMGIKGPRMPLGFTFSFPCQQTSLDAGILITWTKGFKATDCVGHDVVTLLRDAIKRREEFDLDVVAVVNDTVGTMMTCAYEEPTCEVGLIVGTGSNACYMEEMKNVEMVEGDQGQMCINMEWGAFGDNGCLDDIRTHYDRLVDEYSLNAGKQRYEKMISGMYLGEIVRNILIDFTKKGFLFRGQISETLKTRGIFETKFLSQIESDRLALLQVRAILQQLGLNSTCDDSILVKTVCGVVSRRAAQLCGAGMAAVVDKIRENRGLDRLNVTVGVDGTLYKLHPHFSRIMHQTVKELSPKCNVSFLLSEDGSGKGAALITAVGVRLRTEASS

cells = assay: cells

Lysine-specific demethylase 4C, sequence (Q9H3R0 whole entry): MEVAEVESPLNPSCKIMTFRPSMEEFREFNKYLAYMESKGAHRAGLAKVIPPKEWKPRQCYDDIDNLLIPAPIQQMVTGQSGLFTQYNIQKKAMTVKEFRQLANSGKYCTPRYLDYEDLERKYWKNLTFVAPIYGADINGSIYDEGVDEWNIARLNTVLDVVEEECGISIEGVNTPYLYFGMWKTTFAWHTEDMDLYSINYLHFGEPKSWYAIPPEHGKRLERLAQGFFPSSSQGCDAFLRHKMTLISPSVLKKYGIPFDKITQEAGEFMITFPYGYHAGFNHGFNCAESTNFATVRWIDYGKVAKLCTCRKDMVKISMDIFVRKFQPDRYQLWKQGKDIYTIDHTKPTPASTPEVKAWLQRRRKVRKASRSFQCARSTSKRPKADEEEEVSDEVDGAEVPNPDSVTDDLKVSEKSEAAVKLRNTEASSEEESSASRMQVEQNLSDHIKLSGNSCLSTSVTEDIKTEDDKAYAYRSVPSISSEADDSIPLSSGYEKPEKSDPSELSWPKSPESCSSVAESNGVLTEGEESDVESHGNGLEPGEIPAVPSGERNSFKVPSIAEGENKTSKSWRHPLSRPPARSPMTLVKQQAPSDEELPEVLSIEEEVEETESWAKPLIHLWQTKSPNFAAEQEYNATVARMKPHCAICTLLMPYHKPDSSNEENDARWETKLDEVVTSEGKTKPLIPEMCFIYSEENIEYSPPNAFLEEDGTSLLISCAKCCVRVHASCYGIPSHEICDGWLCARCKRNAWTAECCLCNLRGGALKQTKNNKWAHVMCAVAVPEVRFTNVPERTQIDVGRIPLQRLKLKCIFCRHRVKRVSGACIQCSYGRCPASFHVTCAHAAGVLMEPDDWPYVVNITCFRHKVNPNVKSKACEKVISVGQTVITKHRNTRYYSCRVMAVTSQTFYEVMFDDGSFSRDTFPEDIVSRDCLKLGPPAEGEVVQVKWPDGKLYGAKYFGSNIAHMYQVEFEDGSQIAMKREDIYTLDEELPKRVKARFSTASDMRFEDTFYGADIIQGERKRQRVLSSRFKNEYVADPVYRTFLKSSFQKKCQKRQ

## Clc1ccc(/N=c2\ssnc2Cl)nc1
[1]
  AC50: 0.669 µM (active)
Hexokinase-1
  EC50: 65.4 µM (inactive)
cells
  IC50: 32.9 µM (active)
